Data taken from PubChem BioAssay (NCI).
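Five concentrations, 48 hours, 96-well plates. TGI is the concentration that stops growth completely.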

What was measured:
Assay in all cases: inhibition of tumour cell growth, NCI panel, 48 h
NCI/ADR-RES ovarian = system: NCI/ADR-RES ovarian
IGROV1 ovarian = system: IGROV1 ovarian
SK-MEL-5 melanoma = system: SK-MEL-5 melanoma
SF-295 CNS = system: SF-295 CNS
CAKI-1 renal = system: CAKI-1 renal
ACHN renal = system: ACHN renal
SW-620 colon = system: SW-620 colon
A498 renal = system: A498 renal
HOP-92 NSCLC = system: HOP-92 NSCLC
MDA-N = system: MDA-N

SMILES	TGI (NCI/ADR-RES ovarian) [µM]	TGI (IGROV1 ovarian) [µM]	TGI (SK-MEL-5 melanoma) [µM]	TGI (SF-295 CNS) [µM]	TGI (CAKI-1 renal) [µM]	TGI (ACHN renal) [µM]	TGI (SW-620 colon) [µM]	TGI (A498 renal) [µM]	TGI (HOP-92 NSCLC) [µM]	TGI (MDA-N) [µM]
O=C(O)C1Cc2ccccc2OC1=O (centres undefined)	> 100	> 100	> 100	> 100	> 100	> 100	> 100	–	–	–
CCOC(=O)/C(=C\NC#N)c1nc2ccccc2[nH]1	> 100	> 100	> 100	> 100	> 100	> 100	> 100	> 100	> 100	> 100
C[n+]1c(-c2ccc(/C=N/Nc3n[nH]c(=S)n3N/N=C/c3ccc(-c4cn5ccccc5[n+]4C)cc3)cc2)cn2ccccc21	> 100	> 100	> 100	> 100	–	> 100	> 100	–	–	> 100
CC[S+](C)c1ccc(-c2c3nc(c(-c4ccc([S+](C)CC)cc4)c4ccc([nH]4)c(-c4ccc([S+](C)CC)cc4)c4nc(c(-c5ccc([S+](C)CC)cc5)c5ccc2[nH]5)C=C4)C=C3)cc1 (centres undefined)	–	–	> 100	> 100	> 100	> 100	> 100	> 100	> 100	–
CC(=O)O[C@H]1CC[C@H]2[C@@H]3CC[C@H]4Nc5c(cnn5S(C)(=O)=O)C[C@]4(C)[C@H]3CC[C@]12C	> 100	> 100	> 100	> 100	> 100	–	–	> 100	> 100	> 100
CCOC(=O)C1CCCC1S(=O)(=O)c1ccc(C)cc1 (centres undefined)	> 100	> 100	> 100	> 100	> 100	> 100	> 100	> 100	> 100	> 100
COc1ccc(C2c3c(-c4ccccc4)nn(-c4ccccc4)c3Oc3ncn(N)c(=N)c32)cc1OC (centres undefined)	6.66	3.2	–	4.34	4.15	3.69	> 25	26	11	–
Cc1ccc(-c2nc3n(c2/C=N\N=C(N)N)CCS3)cc1	> 100	28.3	27.2	24.6	34	28.2	30.8	30.5	34	–
CCc1c(-c2coc(CC/C(C)=C/c3ccccc3)n2)oc(OC)c(C)c1=O	–	> 100	> 46.9	> 100	> 100	> 71.4	> 44.7	> 100	> 100	–
CN1CCN(CCCCNc2cc3c4ccccc4c(NCCCCN4CCN(C)CC4)cc3c3ccccc23)CC1	21.6	5.52	2.85	3.77	25.6	17.3	–	28.5	28.2	0.977
O=C(O)C1C2CCC(C2)C1c1ccccc1 (centres undefined)	> 100	–	> 100	> 100	> 100	> 100	> 100	> 100	> 100	> 100
CN(c1ccccc1Cl)S(=O)(=O)c1ccccc1	> 100	> 100	> 100	> 100	> 100	> 100	> 100	–	–	> 100
CC1(C)N=C(/C(C#N)=[N+](/[O-])C(=O)c2ccccc2)C(C)(C)N1O	> 100	> 100	> 100	> 100	> 100	> 100	> 100	–	> 100	> 100
O=C(O)c1ccc(/C=N\N(CCO)C2=NCCN2)cc1	–	> 100	> 100	> 100	–	> 100	> 100	–	> 100	> 100
C=CC[C@@]1(C#N)C[C@H](C[C@]2(C#N)C[C@H](CCl)OC(C)(C)O2)OC(C)(C)O1	–	> 100	> 100	> 100	> 100	> 100	> 100	> 100	> 100	–
Nc1ccc(S(=O)(=O)c2ccc(N=[N+]([O-])c3ccc(S(=O)(=O)c4ccc(N)cc4)cc3)cc2)cc1	> 100	> 100	> 100	> 100	> 100	> 100	> 100	> 85.1	38.4	–
Cc1cc(C)c(N)c(C)c1N	–	> 100	> 100	> 100	–	> 100	> 100	> 100	> 100	–
CCC(=O)n1c(=O)n(-c2ccc([N+](=O)[O-])cc2)c(=O)n1C(=O)CC	> 100	> 100	> 100	> 100	> 100	> 100	> 100	–	–	> 100
Cc1noc(C)c1N=Nc1ccc2nonc2c1N	> 100	> 100	> 100	> 100	> 100	> 100	> 100	–	> 100	> 100
CCCCCCCCCCOC1C(C(C)OCCCN(C)C)OC2OC3(CCCCC3)OC21 (centres undefined)	32.2	28.1	29.5	32.7	28	31.4	27.1	–	16.3	21.8
CC1=NN(C(=O)c2ccccc2)C(=O)C1N=Nc1ccccc1C(=O)O (centres undefined)	> 100	> 78.1	> 100	> 100	> 100	–	> 100	> 100	> 100	–
Cn1nc2ccc3nccc(NCCNCCCl)c3c2n1	–	> 100	–	> 100	–	> 100	> 100	–	> 100	–
N/C(=N\N=C/c1cc(Cl)cc(Cl)c1O)NO	26.6	44.3	12.5	15.2	10.1	–	38.5	18.8	46.8	–
CC(C)(CO)NC(=O)c1cccc(C(=O)NC(C)(C)CO)c1Br	> 100	> 100	> 100	–	> 100	> 100	> 100	–	> 100	–
